Results taken from US10292382B2, “No-spin cryopreservation technique and resulting products” (Biopredic International, priority 2014, dated 2019).

How the values were obtained:
cells = conditions: above 4° C.; cited from earlier work

Procedure for Fresh human hepatocytes: In this Example, testing was carried out to determine the effect of different concentrations of DMSO (0 to 2%) on the cell plateability/attachment using the inventive, direct NS plating method.
Fresh human hepatocytes having 78% viability, corresponding generally to customary thawed cell viability, were plated with DMSO in concentrations ranging from 0 to 2%. The cells were plated without Percoll density gradient centrifugation for both classical and NS methods. The cell seeding density was 0.37 million cells/well (MW24 plate) for both classical & NS methods. The cells were evaluated for cell morphology, plateability, and metabolic activity.
The DMSO, as a cryoprotectant included in freezing medium, has been tested at final concentrations up to 2% in the cell plating medium.

Question: Which results are given for `C[S+](C)[O-]` [DMSO, dimethyl sulfoxide]?
Answer: maximum tolerated DMSO percentage in hepatocyte-NS plating medium for cell attachment (Fresh human hepatocytes): less than 1 % (v/v); DMSO concentration demonstrated to be toxic (cells): up to 2%
